{"source": "patent EP3219306B1", "about": "“COMPOSITION COMPRISING CITICOLINE AND HOMOTAURINE FOR PREVENTING AND TREATING NEUODEGENERATIVE DISEASES AND COGNITIVE DISORDERS” (NEURAXPHARM ITALY S.P.A., priority 2016, dated 2017)", "key": {"[1]": {"system": "retinal cells", "settings": "for cytotoxicity (cell death) on the cell cultures: 1, 10, 100 µM for 24 h; for toxicity to retinal cells (MTT): 1, 10 or 100 µM", "description": "(§1) The MTT assay was used to measure the viability of both neuronal and retina cells. The cells were prepared in a 96-well plate in DMEM-F12 with 7% FBS. After cultured in DMEM-F12 without serum for 12 h, Ab25-35 ([…]) or glucose oxidase (GOX) alone or in combination with homotaurine (Hom), citicoline (CITC) or Hom + CITC were added to the medium. Twenty-four hours later, the cells were incubated with […] MTT (Roche, 0.5 mg/ml) at 37 °C for 4 hours, then the crystals were dissolved in […] DMSO. Absorbance at 570 nm was measured with a spectrophotometer (TECAN Infinite M200, Switzerland)."}, "[2]": {"experiment": "Water solubility", "format": "physicochemical"}, "[3]": {"experiment": "Bioavailability of [methyl-14C]-labelled citicoline by oral and venous route, radioactivity in plasma", "format": "in vivo, experimental animal models", "description": "In experimental animal models, the applicant compared the bioavailability by oral and venous route of citicoline, labeling it with a radioactive label -[methyl-14C]."}, "[4]": {"experiment": "Randomized double-blind, placebo-controlled trial in subjects with medium to moderate Alzheimer's disease", "format": "in vivo, human", "settings": "50, 100, 150 mg homotaurine in combination with 500, 750 and 1000 mg sodium citicoline", "description": "Studies to evaluate the pharmacokinetic-pharmacodynamic effect of compositions for use of the invention have provided positive indications about the activity. In particular, in a randomized double-blind, placebo-controlled trial in which 58 subjects with from medium to moderate Alzheimer's disease were administered 50, 100, 150 mg of homotaurine in combination with 500, 750 and 1000 mg of sodium citicoline."}, "[5]": {"settings": "50 mg per day, individuals with an average decline of cognitive functions; cited from earlier work"}, "[6]": {"target": "Aβ40 (Homo sapiens, UniProt P05067)", "sequence (P05067 672-711 limits assumed, species assumed)": "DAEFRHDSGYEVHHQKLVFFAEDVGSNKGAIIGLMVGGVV", "settings": "8-week treatment, 30 or 100 mg/kg/day; cited from earlier work"}, "[7]": {"system": "human retina pigment epithelium (ARPE-19)", "experiment": "MTT assay, cell viability of retina cells against cytotoxicity induced by glucose oxidase (GOX)", "format": "cell-based", "settings": "cytotoxicity induced by GOX 50 mU/ml; 1 µM; n = 5", "description": "as §1"}, "[8]": {"target": "Aβ42 (Homo sapiens, UniProt P05067)", "sequence (P05067 672-713 limits assumed, species assumed)": "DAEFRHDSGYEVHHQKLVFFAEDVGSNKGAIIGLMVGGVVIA", "settings": "8-week treatment, 30 or 100 mg/kg/day; cited from earlier work"}}, "note": "Entries after “also recorded” stand apart in the source; their conditions may differ."}
{"smiles": "C[N+](C)(C)CCOP(=O)(O)OP(=O)([O-])OC[C@H]1O[C@@H](n2ccc(N)nc2=O)[C@H](O)[C@@H]1O", "note": "[citicoline, 2-[{[5-(4-amino-2-oxopyrimidin-1-yl)-3,4-dihydroxyoxolan-2-yl]methoxy-hydroxyphosphoryl}oxy-hydroxyphosphoryl]oxyethyl-thrimethylazanium]", "values": [{"measurement": "cytotoxicity (cell death) on the cell cultures", "setting": "[1]", "result": "None of the concentrations induced cell death; also recorded: substantial absence of cytotoxicity"}, {"measurement": "toxicity to retinal cells (MTT)", "setting": "[1]", "result": "no evidence of selective toxicity"}, {"measurement": "water solubility", "setting": "[2]", "result": "high"}, {"measurement": "bioavailability", "setting": "[3]; oral administration", "result": "greater than 90%"}, {"measurement": "equivalence of the two alternative administration routes (percentage of radioactivity in plasma over time)", "setting": "[3]; oral vs venous route, [methyl-14C] label", "result": "about 90%"}]}
{"smiles": "C[N+](C)(C)CCOP(=O)([O-])OP(=O)([O-])OC[C@H]1O[C@@H](n2ccc(N)nc2=O)[C@H](O)[C@@H]1O.[Na+]", "note": "[sodium citicoline]", "values": [{"measurement": "crossing of the blood-brain barrier", "setting": "[4]", "result": "crossed the blood-brain barrier"}]}
{"smiles": "NCCCS(=O)(=O)O", "note": "[homotaurine, 3-amino-1-propanesulfonic acid]", "values": [{"measurement": "effect on atrophy of the hippocampus", "setting": "[5]", "result": "positive effect"}, {"measurement": "effect on episodic memory loss", "setting": "[5]", "result": "positive effect"}, {"measurement": "plasma level of Aβ40", "setting": "[6]", "result": "able to reduce"}, {"measurement": "cytotoxicity (cell death) on the cell cultures", "setting": "[1]", "result": "None of the concentrations induced cell death; also recorded: substantial absence of cytotoxicity"}, {"measurement": "toxicity to retinal cells (MTT)", "setting": "[1]", "result": "no evidence of selective toxicity"}, {"measurement": "crossing of the blood-brain barrier", "setting": "[4]", "result": "crossed the blood-brain barrier"}, {"measurement": "cell viability (MTT)", "setting": "[7]", "result": "able to improve the cell viability"}, {"measurement": "plasma level of Aβ42", "setting": "[8]", "result": "able to reduce"}]}
